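Exposure lasted 48 hours, with cells grown in 96-well plates and compounds tested at five concentrations. The concentration for full growth arrest is given as TGI.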

Some test systems named below: ACHN renal; HCT-15 colon; HL-60(TB) leukemia; HOP-62 NSCLC; K-562 leukemia; LOX IMVI melanoma; M14 melanoma; NCI-H23 lung; NCI-H522 lung; SK-MEL-28 melanoma; SK-MEL-5 melanoma; SW-620 colon; U251 CNS; UO-31 renal; DU-145 prostate; HOP-92 NSCLC; MCF7 breast; MDA-MB-231 breast; MDA-N; BT-549 breast.
Common to all, as to test: NCI-60 cell line screen, 48 h

Turning to `O=C(COc1ccc2c(=O)cc(-c3ccccc3)oc2c1)N1CCN(c2ccccc2)CC1`, the TGI in the test on ACHN renal is over 100 µM; in the test with HCT-15 colon, over 100 µM; with HL-60(TB) leukemia it was 87.3 µM; in the test on HOP-62 NSCLC, over 100 µM; in the test on K-562 leukemia, over 100 µM; with LOX IMVI melanoma, over 100 µM. In addition, the TGI was over 100 µM with M14 melanoma; over 100 µM in the test on NCI-H23 lung; 93.8 µM in the test with NCI-H522 lung; over 100 µM in the test with SK-MEL-28 melanoma; over 100 µM with SK-MEL-5 melanoma; over 100 µM with SW-620 colon. For the same molecule, the TGI with U251 CNS and in the test on UO-31 renal was over 100 µM throughout.

For the molecule `CN(C)CCCNC(=O)CCNC(=O)c1cc(NC(=O)c2cc(NC(=O)c3cc(NC(=O)c4nc(NC(=O)CCCNC(=O)c5cc(NC(=O)c6cc(NC(=O)c7cc(NC(=O)c8nccn8C)cn7C)cn6C)cn5C)cn4C)cn3C)cn2C)cn1C`, the TGI in the test with ACHN renal, with DU-145 prostate, in the test with HCT-15 colon, with HL-60(TB) leukemia, with HOP-62 NSCLC and in the test on HOP-92 NSCLC was over 100 µM each time. In addition, the TGI in the test with K-562 leukemia, in the test with LOX IMVI melanoma, in the test on M14 melanoma, in the test on MCF7 breast, with MDA-MB-231 breast and in the test on MDA-N was over 100 µM each time. Moreover, the TGI with NCI-H23 lung, in the test with NCI-H522 lung, in the test on SK-MEL-28 melanoma, with SK-MEL-5 melanoma, in the test on SW-620 colon and with U251 CNS was over 100 µM throughout. The molecule also registered a TGI in the test on UO-31 renal of over 100 µM.

Turning to `O=C1c2ccccc2S(=O)(=O)c2c1cccc2[N+](=O)[O-]`, the TGI was 8.04 µM with ACHN renal; over 8.34 µM in the test with BT-549 breast; over 10 µM in the test on DU-145 prostate; 2.95 µM with HCT-15 colon; 4.97 µM in the test on HL-60(TB) leukemia; over 10 µM in the test on HOP-62 NSCLC. Also, the TGI with HOP-92 NSCLC is 9 µM; with K-562 leukemia, over 10 µM; in the test with LOX IMVI melanoma, 5.21 µM; with M14 melanoma, 3.4 µM; in the test on MCF7 breast, 3.31 µM; in the test with MDA-MB-231 breast it was 5.36 µM. Further, the TGI is over 8.17 µM in the test on NCI-H23 lung; 3.09 µM in the test with NCI-H522 lung; 5.25 µM in the test with SK-MEL-28 melanoma; 2.46 µM in the test with SK-MEL-5 melanoma; 3.47 µM with SW-620 colon; over 8.28 µM in the test on U251 CNS. This molecule came in with a TGI with UO-31 renal of 3.92 µM.

`Cn1cnc(CCc2ccccc2)n1`: the TGI with ACHN renal, with HCT-15 colon, with HL-60(TB) leukemia, with HOP-62 NSCLC, in the test with HOP-92 NSCLC and in the test on K-562 leukemia was over 100 µM in each case. Also, the TGI in the test with LOX IMVI melanoma, with M14 melanoma, with NCI-H23 lung, in the test on NCI-H522 lung, in the test on SK-MEL-28 melanoma and in the test with SK-MEL-5 melanoma was over 100 µM each time. Moreover, the TGI in the test on SW-620 colon, with U251 CNS and in the test with UO-31 renal was over 100 µM throughout.

For the molecule `CCOP(=O)(OCC)C1CC(O)C(=O)N1` (stereo not given), the TGI in the test with ACHN renal, in the test with DU-145 prostate, in the test with HCT-15 colon, with HOP-62 NSCLC, in the test with K-562 leukemia and in the test on LOX IMVI melanoma was over 100 µM in each case. Further, the TGI in the test on M14 melanoma, with MCF7 breast, with MDA-MB-231 breast, in the test with MDA-N, with NCI-H23 lung and in the test on SK-MEL-28 melanoma was over 100 µM in each case. Besides, the TGI in the test with SK-MEL-5 melanoma, in the test on SW-620 colon, in the test with U251 CNS and in the test on UO-31 renal was over 100 µM each time.

Turning to `CCOC(=O)c1c(N2CCCC2)nsc1Nc1ccc(F)cc1`, the TGI was over 100 µM with ACHN renal; over 100 µM in the test on DU-145 prostate; over 100 µM in the test on HCT-15 colon; 58.8 µM in the test with HL-60(TB) leukemia; over 100 µM in the test on HOP-62 NSCLC; 95.7 µM with HOP-92 NSCLC. The TGI in the test with K-562 leukemia, in the test with LOX IMVI melanoma, in the test with M14 melanoma, in the test on MDA-MB-231 breast, in the test on MDA-N and in the test on NCI-H23 lung was over 100 µM each time. Moreover, the TGI in the test on NCI-H522 lung is over 100 µM; in the test with SK-MEL-28 melanoma, over 100 µM; with SK-MEL-5 melanoma, 34.3 µM; with SW-620 colon, over 100 µM; in the test with U251 CNS, over 100 µM; in the test on UO-31 renal, 46.8 µM.

Consider `CC1=C(C(=O)O)N2C(=O)[C@@H](NC(=O)C(c3ccc(O)cc3)N3CSC(=S)N(C(C)C)C3)C2SC1` (stereo not given in full), for which the TGI with ACHN renal, in the test on HCT-15 colon, in the test on HL-60(TB) leukemia, in the test with HOP-62 NSCLC, with HOP-92 NSCLC and with K-562 leukemia was over 100 µM in each case. Moreover, the TGI in the test with LOX IMVI melanoma, with M14 melanoma, with NCI-H23 lung, in the test with NCI-H522 lung, in the test with SK-MEL-28 melanoma and with SK-MEL-5 melanoma was over 100 µM in each case. Moreover, the TGI in the test with U251 CNS and in the test on UO-31 renal was over 100 µM throughout.

`COc1cc(OC)c2c(c1)C(=O)C(CC(C)O)=CC2=O` (stereo not given): the TGI in the test on ACHN renal is 30.2 µM; with HCT-15 colon, 27.7 µM; in the test on HL-60(TB) leukemia, 21.8 µM; in the test on HOP-62 NSCLC it was 33.6 µM; in the test on HOP-92 NSCLC, 23.3 µM; with K-562 leukemia, 78.8 µM. The TGI in the test with LOX IMVI melanoma is 19 µM; in the test with M14 melanoma it was 32.9 µM; in the test on NCI-H23 lung, 34.9 µM; with NCI-H522 lung it was 30.9 µM; with SK-MEL-28 melanoma it was 31.5 µM; with SK-MEL-5 melanoma it was 28 µM. Also, the TGI is 31.7 µM in the test with SW-620 colon, 31.8 µM in the test with U251 CNS and 29.9 µM with UO-31 renal.
